Legend:
Assay in all cases: relative viability (nuclei count vs DMSO), 5 days (fraction); higher = more cells survive
[1] = compound: CC1=CC(=CC=C1)NC2=NC(=CS2)C3=CC=NC=C3 + CC(=O)Nc1cccc(-n2c(=O)n(C3CC3)c(=O)c3c(Nc4ccc(I)cc4F)n(C)c(=O)c(C)c32)c1 [Trametinib] (partner 0.02 µM)
In short: (§1)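 Relative viability was taken as the ratio of nuclei in treated wells to nuclei in vehicle wells. Lung cancer cell lines in 1536-well plates received compounds by pin tool one day after seeding, either one drug alone or a fixed anchor-drug dose plus five library-drug doses (not always all listed) in √10 steps. Nuclei were counted on 4× images after 5 days of treatment, and values are medians of duplicate plates.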

[2] = compound: CC1=CC(=CC=C1)NC2=NC(=CS2)C3=CC=NC=C3 + CCNC(=O)c1noc(-c2cc(C(C)C)c(O)cc2O)c1-c1ccc(CN2CCOCC2)cc1 [Luminespib] (partner 0.01 µM)
In short: as §1

Masitinib + Pictilisib = compound: Cc1ccc(NC(=O)c2ccc(CN3CCN(C)CC3)cc2)cc1Nc1nc(-c2cccnc2)cs1 [Masitinib] + CS(=O)(=O)N1CCN(Cc2cc3nc(-c4cccc5[nH]ncc45)nc(N4CCOCC4)c3s2)CC1 [Pictilisib] (partner 1 µM)
In short: as §1

Masitinib + Olaparib = compound: Cc1ccc(NC(=O)c2ccc(CN3CCN(C)CC3)cc2)cc1Nc1nc(-c2cccnc2)cs1 [Masitinib] + O=C(c1cc(Cc2n[nH]c(=O)c3ccccc23)ccc1F)N1CCN(C(=O)C2CC2)CC1 [Olaparib] (partner 8 µM)
In short: as §1

Row | Cell Line | relative viability ([1]; first compound 0.08 µM) | relative viability ([1]; first compound 0.253 µM) | relative viability ([1]; first compound 0.8 µM) | relative viability ([1]; first compound 2.53 µM) | relative viability ([1]; first compound 8 µM) | relative viability ([2]; first compound 0.08 µM) | relative viability ([2]; first compound 0.253 µM) | relative viability ([2]; first compound 2.53 µM) | relative viability ([2]; first compound 8 µM) | relative viability (Masitinib + Pictilisib; first compound 0.01 µM) | relative viability (Masitinib + Pictilisib; first compound 0.03162 µM) | relative viability (Masitinib + Pictilisib; first compound 0.1 µM) | relative viability (Masitinib + Pictilisib; first compound 0.3162 µM) | relative viability (Masitinib + Pictilisib; first compound 1 µM) | relative viability (Masitinib + Olaparib; first compound 0.01 µM) | relative viability (Masitinib + Olaparib; first compound 0.03162 µM) | relative viability (Masitinib + Olaparib; first compound 0.1 µM) | relative viability (Masitinib + Olaparib; first compound 0.3162 µM) | relative viability (Masitinib + Olaparib; first compound 1 µM) | relative viability ([2]; first compound 0.8 µM)
1 | NCI-H2347 | 0.289 | 0.309 | 0.256 | 0.29 | 0.265 | 0.409 | 0.248 | 0.555 | 0.232 | 0.742 | 0.646 | 0.668 | 0.825 | 0.685 | 0.507 | 0.591 | 0.597 | 0.621 | 0.53 | 
2 | NCI-H2405 | 0.566 | 0.571 | 0.591 |  | 0.552 | 0.583 | 0.589 | 0.666 | 0.64 | 0.434 | 0.382 | 0.445 | 0.302 | 0.332 | 0.78 | 0.816 | 0.873 | 0.722 | 0.827 | 0.63
3 | NCI-H3122 | 0.204 | 0.25 | 0.307 | 0.321 | 0.414 | 0.125 | 0.0766 | 0.0836 | 0.105 | 0.579 | 0.623 | 0.595 | 0.677 | 0.574 | 0.64 | 0.604 | 0.703 | 0.589 | 0.615 | 0.101
4 | PC-3 [JPC-3] | 0.602 |  | 0.658 | 0.606 | 0.572 | 0.715 | 0.723 | 0.633 | 0.629 | 0.71 | 0.761 | 0.761 | 0.459 | 0.656 | 0.985 | 1.11 | 1.22 | 0.932 | 1.11 | 0.532
5 | PC-14 | 0.591 | 0.747 | 0.629 | 0.647 | 0.36 | 0.143 | 0.183 | 0.123 | 0.138 | 0.603 | 0.613 | 0.77 | 0.747 | 0.657 | 0.277 | 0.256 | 0.249 | 0.232 | 0.204 | 0.171
6 | RERF-LC-KJ | 0.953 | 0.734 | 0.735 | 0.703 | 0.645 | 1.06 | 1.19 | 0.999 | 0.717 | 0.496 | 0.514 | 0.617 | 0.404 | 0.457 | 0.935 | 0.916 | 0.978 | 0.672 | 0.852 | 0.982
7 | SK-LU-1 | 0.479 | 0.492 | 0.361 | 0.568 | 0.351 | 0.205 | 0.223 | 0.183 | 0.227 | 0.483 | 0.53 | 0.643 | 0.549 | 0.518 | 0.419 | 0.486 | 0.436 | 0.524 | 0.497 | 
8 | SK-MES-1 | 0.477 | 0.5 | 0.457 | 0.571 | 0.423 | 0.614 | 0.515 | 0.749 | 0.508 | 0.346 | 0.312 | 0.406 | 0.332 | 0.371 | 0.775 | 0.761 | 0.798 | 0.629 | 0.653 | 0.556
9 | SW 1573 | 0.596 | 0.585 | 0.741 | 0.696 | 0.48 | 0.296 | 0.19 | 0.248 | 0.253 | 0.471 | 0.542 | 0.478 | 0.472 | 0.452 | 0.505 | 0.472 | 0.591 | 0.431 | 0.453 | 0.16

Source: the supplement of paper PMC10307832
